# Source: patent US4942171A, “The compound, 6-(1-imidazolyl methyl)-5,6,7,8-tetrahydronaphthalene-2-carboxylic acid and salts thereof having antidiabetic activity” (Daiichi Seiyaku Co., Ltd., priority 1987, dated 1990)
# Structures can show the parent of a compound that is named as a salt.
# Columns and labels:
# diabetic SHR = test: Determination of Glucose Tolerance in diabetic SHR; assay type: in vivo, rat; conditions: for Blood Sugar Level (Effect on Glucose Tolerance): 3 months
# Method: (§1) 5-Week old spontaneous hypertensive male rats (SHR), available from Nippon Charles River, were used. Streptozotocin (STZ) was dissolved in a 0.1M citrate buffer solution (pH 4.5) and injected into the tail vein of the rats at a dose level of 50 mg/kg to prepare diabetic rats. For control, rats received 1 ml/kg of the citrate buffer solution alone through administration to the tail vein. After one week from the STZ administration, blood was taken from the tail vein of the unanesthetized rats, and the blood sugar level was determined. Those rats having a blood sugar level of 300 mg/dl or higher were used as diabetic rats.
# (§2) 6-(1-Imidazolylmethyl)-5,6,7,8-tetrahydronaphthalene- 2-carboxylic acid hydrochloride hemihydrate (hereinafter referred to as Compound A) was dissolved in distilled water and administered orally to the test animals at a dose level of 1 mg/kg/day or 10 mg/kg/day for 5 consecutive months from one week after the administration of STZ or a citrate buffer solution.
# After 3 months from the start of the administration of Compound A, the rats were fasted for 18 hours. Glucose was administered orally to the rats at a dose level of 2 g/kg. Blood was sampled from the tail vein of the rats just before the administration of glucose and at 1 hour and 2 hours after the administration to determine the blood sugar lever using the above method. The result was shown in Table 2, expressed as mean +S.E.
# [1] = system: streptozotocin-induced diabetic spontaneous hypertensive rats; test: Efficacy in Diabetic Model: Determination of Blood Sugar Level, STZ-induced diabetic SHR; assay type: in vivo, rat; conditions: for Blood Sugar Level: Diabetic SHR (n = 7), mean ± S.E.
# Method: as §1, §2
# (§3) Just before the administration of Compound A, blood was sampled from the tail vein of the rats without any restriction of diet to determine the blood sugar level using a commercial glucose assay kit (Trade name: New Blood Sugar Test, produced by Boehringer Mannheim Co., Ltd., West Germany). The results are shown in Table 1, expressed as mean ±S.E.
# [2] = system: spontaneous hypertensive male rats (SHR); test: Efficacy in Diabetic Model: Determination of Blood Sugar Level, non-diabetic SHR; assay type: in vivo, rat; conditions: for Blood Sugar Level: SHR (n = 8), mean ± S.E.
# Method: as §1, §2, §3
# Acute Toxicity in Rats = conditions: rat, in vivo
# Excerpt: Acute toxicities of Compound A in rats through oral administration or intravenous injection were as follows.
# [3] = 1 mg/kg/day p.o., 0 weeks (before administration)
# [4] = 10 mg/kg/day p.o., 0 weeks (before administration)
smiles,measurement,setting,value
"O=C(O)c1ccc2c(c1)CCC(Cn1ccnc1)C2 (centres unmarked) [Compound A, 6-(1-Imidazolylmethyl)-5,6,7,8-tetrahydronaphthalene-2-carboxylic acid hydrochloride hemihydrate]",Blood Sugar Level (Effect on Glucose Tolerance),"diabetic SHR; 1 mg/kg/day p.o. (n = 7), 1 hour after glucose load (2 g/kg p.o.), control 329.5",255.4 mg/dL
same,Blood Sugar Level (Effect on Glucose Tolerance),"diabetic SHR; 1 mg/kg/day p.o. (n = 7), 2 hours after glucose load (2 g/kg p.o.), control 280.8",167.3 mg/dL
same,Blood Sugar Level (Effect on Glucose Tolerance),"diabetic SHR; 1 mg/kg/day p.o. (n = 7), just before the glucose load (2 g/kg p.o.), control 178.5",136.8 mg/dL
same,Blood Sugar Level (Effect on Glucose Tolerance),"diabetic SHR; 10 mg/kg/day p.o. (n = 8), 1 hour after glucose load (2 g/kg p.o.), control 329.5, *P < 0.05 vs control",202.4 mg/dL
same,Blood Sugar Level (Effect on Glucose Tolerance),"diabetic SHR; 10 mg/kg/day p.o. (n = 8), 2 hours after glucose load (2 g/kg p.o.), control 280.8",137.1 mg/dL
same,Blood Sugar Level (Effect on Glucose Tolerance),"diabetic SHR; 10 mg/kg/day p.o. (n = 8), just before the glucose load (2 g/kg p.o.), control 178.5",105.1 mg/dL
same,glucose tolerance in the diabetic SHR,"diabetic SHR; rat, in vivo",improved the glucose tolerance
same,effect on blood sugar level of diabetic SHR,[1]; 8 weeks after the start of administration,significantly lowered the blood sugar level
same,Blood Sugar Level,[1]; [3],374.6 mg/dL
same,Blood Sugar Level,"[1]; 1 mg/kg/day p.o., 2 weeks, control 481.5",406.3 mg/dL
same,Blood Sugar Level,"[1]; 1 mg/kg/day p.o., 8 weeks, control 544.2",445.0 mg/dL
same,Blood Sugar Level,[1]; [4],361.4 mg/dL
same,Blood Sugar Level,"[1]; 10 mg/kg/day p.o., 2 weeks, control 481.5, *P < 0.05 vs control",365.2 mg/dL
same,Blood Sugar Level,"[1]; 10 mg/kg/day p.o., 8 weeks, control 544.2, **P < 0.01 vs control",277.3 mg/dL
same,effect on high blood sugar level of diabetic SHR,[1]; from 2 weeks after the start of administration,tendency to lower the high blood sugar level
same,Blood Sugar Level,[2]; [3],100.7 mg/dL
same,Blood Sugar Level,"[2]; 1 mg/kg/day p.o., 2 weeks",95.4 mg/dL
same,Blood Sugar Level,"[2]; 1 mg/kg/day p.o., 8 weeks",94.5 mg/dL
same,Blood Sugar Level,[2]; [4],108.0 mg/dL
same,Blood Sugar Level,"[2]; 10 mg/kg/day p.o., 2 weeks",90.9 mg/dL
same,Blood Sugar Level,"[2]; 10 mg/kg/day p.o., 8 weeks",93.2 mg/dL
same,effect on blood sugar level in SHR,[2]; non-diabetic SHR,not affected
same,LD50,"Acute Toxicity in Rats; iv, female rats",783 mg/kg
same,LD50,"Acute Toxicity in Rats; iv, male rats",807 mg/kg
same,LD50,"Acute Toxicity in Rats; po, female rats",1990 mg/kg
same,LD50,"Acute Toxicity in Rats; po, male rats",2440 mg/kg
